Test results from patent publication US20240228474A1, “ANTIBACTERIAL COMPOUND” (DISCUVA LIMITED, priority 2021, published 2024).

Test system: E. coli BAA-2469 (NDM-1 positive)
Assay: Murine bacteraemia / bloodstream infection proof-of-concept study, IV bolus
Format: in vivo
Experimental: Compound (I) and comparative compound (III) were evaluated in proof-of-concept studies in murine models for the treatment of a respiratory infection with Gram-negative bacteria of the order Enterobacterales, a bacteraemia or bloodstream infection with Gram-negative bacteria of the order Enterobacterales, and a urinary tract infection with Gram-negative bacteria of the order Enterobacterales. Each dot, triangle or square indicator represents a single mouse. LOD refers to the limit of detection of the bacteria. […] Each of the proof-of-concept studies was carried out separately. By vehicle is meant pharmaceutically acceptable carrier or excipient.
For the proof-of-concept study for the treatment of a bacteraemia or bloodstream infection with Gram-negative bacteria of the order Enterobacterales, CD-1 mice were infected with human urine isolate E. coli BAA-2469 (NDM-1 positive). One hour after infection (‘pre-treatment’ in FIG. 3), a vehicle (20% hydroxypropyl β cyclodextrin) containing no compound (I) or comparative compound (III), or a vehicle (20% hydroxypropyl β cyclodextrin) containing compound (I) or comparative compound (III), was administered by as a single dose IV bolus at 20 mg/kg.

Cc1cnccc1-c1[nH]c(N)nc1-c1ccc2c(c1)N(C(=O)C(C)(C)N)CCO2 [Compound (I), 2-amino-1-(6-(2-amino-5-(3-methylpyridin-4-yl)-1H-imidazol-4-yl)-2,3-dihydro-4H-benzo[b][1,4]oxazin-4-yl)-2-methylpropan-1-one]
reduction of bacterial burden in the blood compared to vehicle (CD-1 mice, single dose IV bolus 20 mg/kg, 9 h from initial infection): 7.43 log | more efficacious than comparative compound (III), blood (difference in log reduction, 9 h): 2.5 log | bacterial burden (CFU) in the blood at end of study (single dose IV bolus 20 mg/kg, 9 h from initial infection): below the limit of detection (LOD)
